Reference: US20190084939A1, “ANALOGS OF FEXARAMINE AND METHODS OF MAKING AND USING” (Salk Institute for Biological Studies, priority 2014, published 2019)
Where two headings read alike, the source gives them in different places.

Target: T1, Human FXR full length (Homo sapiens, UniProt Q96RI1)
T1 construct: Human FXR full length and RXR full length was obtained from Ronald Evans' laboratory; expressed in transfected cells; host or cells: CV-1 cells
T1 sequence (Q96RI1 1-476 isoform Q96RI1-1): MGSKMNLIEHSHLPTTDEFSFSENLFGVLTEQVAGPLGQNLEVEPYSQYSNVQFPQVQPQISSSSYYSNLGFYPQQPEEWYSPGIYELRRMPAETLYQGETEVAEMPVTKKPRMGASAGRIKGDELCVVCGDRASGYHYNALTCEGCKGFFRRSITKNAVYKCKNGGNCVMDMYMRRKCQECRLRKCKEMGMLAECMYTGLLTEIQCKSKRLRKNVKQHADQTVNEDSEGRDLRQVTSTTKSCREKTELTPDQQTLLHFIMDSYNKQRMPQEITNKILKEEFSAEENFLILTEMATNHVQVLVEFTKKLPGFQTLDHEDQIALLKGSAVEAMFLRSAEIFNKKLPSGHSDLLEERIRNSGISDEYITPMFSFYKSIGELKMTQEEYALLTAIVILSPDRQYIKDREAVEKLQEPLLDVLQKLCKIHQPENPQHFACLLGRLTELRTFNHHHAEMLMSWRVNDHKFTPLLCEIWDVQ
T1 sequence (P19793 1-462 partner): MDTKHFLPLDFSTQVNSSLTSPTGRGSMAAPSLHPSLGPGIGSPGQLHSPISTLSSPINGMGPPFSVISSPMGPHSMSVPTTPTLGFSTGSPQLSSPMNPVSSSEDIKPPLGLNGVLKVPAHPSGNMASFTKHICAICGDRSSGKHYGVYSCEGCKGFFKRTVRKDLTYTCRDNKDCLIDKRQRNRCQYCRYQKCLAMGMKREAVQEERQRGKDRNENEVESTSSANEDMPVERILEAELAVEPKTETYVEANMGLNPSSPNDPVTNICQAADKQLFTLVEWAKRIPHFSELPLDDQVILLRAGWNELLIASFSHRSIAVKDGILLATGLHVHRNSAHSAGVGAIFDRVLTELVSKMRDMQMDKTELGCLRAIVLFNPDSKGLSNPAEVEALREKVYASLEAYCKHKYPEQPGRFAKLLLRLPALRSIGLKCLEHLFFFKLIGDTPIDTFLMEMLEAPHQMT
Test: FXR activity screen, luciferase reporter in transfected CV-1 cells
Type: cell-based
Description: CV-1 cells were grown in DMEM+10% charcoal stripped FCS. Cells were seeded into 384-well plates the day before transfection to give a confluency of 50-80% at transfection. A total of […] DNA containing 0.32 micrograms pCMX-hFXRfl, 0.32 micrograms pCMX-hRXRfl, 0.1 micrograms pCMXβGal, 0.08 micrograms pGLFXRE reporter and 0.02 micrograms pCMX empty vector was transfected per well using FuGene transfection reagent according to the manufacturer's instructions (Roche). Cells were allowed to express protein for 48 hours followed by addition of compound.
Human FXR full length and RXR full length was obtained from Ronald Evans' laboratory and PCR amplification of the hFXR cDNA and the hRXR cDNA was performed. The amplified cDNAs was cloned into the vector pCMX generating the plasmids pCMX-hFXRfl and pCMX-hRXRfl. Ensuing fusions were verified by sequencing. The pCMXMH2004 luciferase reporter contains multiple copies of the GAL4 DNA response element under a minimal eukaryotic promoter (Hollenberg and Evans, 1988). pCMXβGal was generated in the Evans laboratory, Salk Institute.
All compounds were dissolved in DMSO and diluted 1:1000 upon addition to the cells. Compounds were tested in quadruple in concentrations ranging from 0.001 to 100 μM. Cells were treated with compound for 24 hours followed by luciferase assay. Each compound was tested in at least two separate experiments.
Medium including test compound was aspirated and washed with PBS. 50 μL PBS including 1 mM Mg^2+ and Ca^2+ were then added to each well. The luciferase assay was performed using the LucLite kit according to the manufacturer's instructions (Packard Instruments). Light emission was quantified by counting on a Perkin Elmer Envision reader. To measure […] activity 25 μL supernatant from each transfection lysate was transferred to a new 384 microplate. Beta-galactosidase assays were performed in the microwell plates using a kit from Promega and read in a Perkin Elmer Envision reader. The beta-galactosidase data were used to normalize (transfection efficiency, cell growth etc.) the luciferase data.
The activity of a compound is calculated as fold induction compared to an untreated sample. For each compound the efficacy (maximal activity) is given as a relative activity compared to Fexaramine, a FXR agonist. The EC50 is the concentration giving 50% of maximal observed activity. EC50 values were calculated via non-linear regression using GraphPad PRISM (GraphPad Software, San Diego, Calif.).

[1] = first round, CV-1 cells, 24 hours, read-out: 1st RND EC50
[2] = second round, CV-1 cells, 24 hours, read-out: 2nd RND EC50

Row | EC50 [1] [nM] | EC50 [2] [nM] | EC50 (retest, read-out: EC50 (retested)) [nM] | Compound
1 | 382 | 357 | – | [2H]C(c1ccc(-c2ccc(N(C)C)cc2)cc1)N(C(=O)c1ccccc1)c1cccc(/C=C/C(=O)OC)c1 (centres unmarked) [NSSK00048]
2 | 2800 | 3500 | – | [2H]C(c1ccc(-c2ccc3c(cnn3C)c2)cc1)N(C(=O)c1ccccc1)c1cccc(/C=C/C(=O)OC)c1 (centres unmarked) [NSSK00049]
3 | 1700 | 2100 | – | [2H]C(c1ccc(-c2ccc(N(C)C)cc2)cc1Cl)N(C(=O)c1ccccc1)c1cc(F)cc(/C=C/C(=O)OC)c1 (centres unmarked) [NSSK00050]
4 | 1100 | 5000 | – | [2H]C(c1ccc(-c2ccc3c(cnn3C)c2)cc1)N(C(=O)c1ccccc1)c1cc(F)cc(/C=C/C(=O)OC)c1 (centres unmarked) [NSSK00051]
5 | 697 | 697 | – | COC(=O)/C=C/c1cccc(N(Cc2ccc(-c3ccc(N(C)C)cc3)cc2Cl)C(=O)[C@@H]2C[C@@H]3CC[C@H]2C3)c1 [NSSK00052]
6 | 529 | 539 | – | COC(=O)/C=C/c1cccc(N(Cc2ccc(-c3ccc(N(C)C)cc3)cc2)C(=O)c2ccccc2)c1 [NSSK00053]
7 | 509 | 457 | – | COC(=O)/C=C/c1cccc(N(Cc2ccc(-c3ccc(N(C)C)cc3)cc2F)C(=O)c2ccccc2)c1 [NSSK00054]
8 | 931 | 1400 | – | COC(=O)/C=C/c1cccc(N(Cc2ccc(-c3ccc(N(C)C)cc3)cc2Cl)C(=O)c2ccccc2)c1 [NSSK00055]
9 | 752 | 720 | – | COC(=O)/C=C/c1cccc(N(Cc2ccc(-c3ccc4c(cnn4C)c3)cc2)C(=O)c2ccccc2)c1 [NSSK00056]
10 | 606 | 795 | – | COC(=O)/C=C/c1cccc(N(Cc2ccc(-c3ccc4c(cnn4C)c3)cc2F)C(=O)c2ccccc2)c1 [NSSK00057]
11 | 1200 | 1500 | – | COC(=O)/C=C/c1cc(F)cc(N(Cc2ccc(-c3ccc4c(cnn4C)c3)cc2)C(=O)c2ccccc2)c1 [NSSK00058]
12 | 1570 | 1300 | – | COC(=O)/C=C/c1cncc(N(Cc2ccc(-c3ccc(N(C)C)cc3)cc2)C(=O)[C@@H]2C[C@@H]3CC[C@H]2C3)c1 [NSSK00059]
13 | 8500 | 11200 | – | COC(=O)/C=C/c1cncc(N(Cc2ccc(-c3ccc(N(C)C)cc3)cc2)C(=O)c2ccccc2)c1 [NSSK00060]
14 | 9600 | 10200 | – | COC(=O)/C=C/c1cncc(N(Cc2ccc(-c3ccc4c(cnn4C)c3)cc2F)C(=O)c2ccccc2)c1 [NSSK00061]
15 | 926 | 926 | – | [2H]C(c1ccc(-c2ccc(N(C)C)cc2)cc1)N(C(=O)C1CCCCC1)c1cncc(/C=C/C(=O)OC)c1 (centres unmarked) [NSSK00062]
16 | 3000 | 1900 | – | [2H]C(c1ccc(-c2ccc(N(C)C)cc2)cc1)N(C(=O)c1ccccc1)c1cncc(/C=C/C(=O)OC)c1 (centres unmarked) [NSSK00063]
17 | 4600 | 3300 | – | [2H]C(c1ccc(-c2ccc(N(C)C)cc2)cc1Cl)N(C(=O)[C@@H]1C[C@@H]2CC[C@H]1C2)c1cncc(/C=C/C(=O)OC)c1 (some centres unmarked) [NSSK00064]
18 | 3300 | 6000 | – | [2H]C(c1ccc(-c2ccc(N(C)C)cc2)cc1Cl)N(C(=O)c1ccccc1)c1cncc(/C=C/C(=O)OC)c1 (centres unmarked) [NSSK00065]
19 | 5400 | 8500 | – | [2H]C(c1ccc(-c2ccc3c(cnn3C)c2)cc1F)N(C(=O)[C@@H]1C[C@@H]2CC[C@H]1C2)c1cncc(/C=C/C(=O)OC)c1 (some centres unmarked) [NSSK00066]

Row | EC50 [1] [nM] | EC50 [2] [nM] | EC50 (retest, read-out: EC50 (retested)) [nM] | Compound
20 | 0.4 | 0.2 | – | [2H]C(c1ccc(-c2ccc3c(cnn3C)c2)cc1F)N(C(=O)c1ccccc1)c1cncc(/C=C/C(=O)OC)c1 (centres unmarked) [NSSK00067]
21 | 5700 | 7400 | – | COC(=O)/C=C/c1cc(F)cc(N(Cc2ccc(-c3ccc(N(C)C)cc3)cc2)C(=O)c2ccccc2)c1 [NSSK00068]
22 | 1700 | 1700 | – | [2H]C(c1ccc(-c2ccc3c(cnn3C)c2)cc1F)N(C(=O)[C@@H]1C[C@@H]2CC[C@H]1C2)c1cccc(/C=C/C(=O)OC)c1 (some centres unmarked) [NSSK00070]
23 | 1100 | 2200 | – | [2H]C(c1ccc(-c2ccc(N(C)C)cc2)cc1Cl)N(C(=O)C1CCCCC1)c1cc(F)cc(/C=C/C(=O)OC)c1 (centres unmarked) [NSSK00072]
24 | 119 | 146 | – | [2H]C(c1ccc(-c2ccc3c(cnn3C)c2)cc1Cl)N(C(=O)[C@@H]1C[C@@H]2CC[C@H]1C2)c1cncc(/C=C/C(=O)OC)c1 (some centres unmarked) [NSSK00073]
25 | 155000 | 653000 | – | COC(=O)/C=C/c1cccc(N(Cc2ccc(-c3ccc4c(cnn4C)c3)cc2Cl)C(=O)C2CCN(C)CC2)c1 [NSSK00075]
26 | 698 | 673 | – | COC(=O)/C=C/c1cncc(N(Cc2ccc(-c3ccc(N(C)C)cc3)cc2F)C(=O)C2CCCCC2)c1 [NSSK00078]
27 | 513 | 605 | – | [2H]C(c1ccc(-c2ccc(N(C)C)cc2)cc1F)N(C(=O)c1ccccc1)c1cccc(/C=C/C(=O)OC)c1 (centres unmarked) [NSSK00079]
28 | 623 | 610 | – | COC(=O)/C=C/c1cccc(N(Cc2ccc(-c3ccc(N(C)C)cc3)cc2Cl)C(=O)C2CCCCC2)c1 [NSSK00080]
29 | 22800 | 71000 | – | COC(=O)/C=C/c1cncc(N(Cc2ccc(-c3ccc(N(C)C)cc3)cc2Cl)C(=O)c2ccccc2)c1 [NSSK00081]
30 | 5100 | 6100 | – | COC(=O)/C=C/c1cncc(N(Cc2ccc(-c3ccc(N(C)C)cc3)cc2Cl)C(=O)[C@@H]2C[C@@H]3CC[C@H]2C3)c1 [NSSK00082]
31 | 3600 | 4700 | – | COC(=O)/C=C/c1cc(F)cc(N(Cc2ccc(-c3ccc4c(cnn4C)c3)cc2)C(=O)C2CCCCC2)c1 [NSSK00084]
32 | 371 | 1600 | – | [2H]C(c1ccc(-c2ccc3c(cnn3C)c2)cc1)N(C(=O)[C@@H]1C[C@@H]2CC[C@H]1C2)c1cccc(/C=C/C(=O)OC)c1 (some centres unmarked) [NSSK00086]
33 | 383 | 406 | 366 | [2H]C(c1ccc(-c2ccc3c(cnn3C)c2)cc1F)N(C(=O)C1CCCCC1)c1cccc(/C=C/C(=O)OC)c1 (centres unmarked) [NSSK00089, methyl (E)-3-(3-(N-((2-fluoro-4-(1-methyl-1H-indazol-5-yl)phenyl)methyl-d)cyclohexanecarboxamido)phenyl)acrylate]
34 | 801 | 628 | – | COC(=O)/C=C/c1cccc(N(Cc2ccc(-c3ccc4c(cnn4C)c3)cc2Cl)C(=O)C2CCCCC2)c1 [NSSK00091]
35 | 3400 | 5500 | – | COC(=O)/C=C/c1cncc(N(Cc2ccc(-c3ccc4c(cnn4C)c3)cc2Cl)C(=O)c2ccccc2)c1 [NSSK00092]
36 | 459 | 511 | – | [2H]C(c1ccc(-c2ccc3c(cnn3C)c2)cc1F)N(C(=O)c1ccccc1)c1cccc(/C=C/C(=O)OC)c1 (centres unmarked) [NSSK00093]
37 | 786 | 865 | – | [2H]C(c1ccc(-c2ccc3c(cnn3C)c2)cc1Cl)N(C(=O)[C@@H]1C[C@@H]2CC[C@H]1C2)c1cc(F)cc(/C=C/C(=O)OC)c1 (some centres unmarked) [NSSK00094]
38 | 1400 | 1500 | – | [2H]C(c1ccc(-c2ccc3c(cnn3C)c2)cc1Cl)N(C(=O)C1CCCCC1)c1cncc(/C=C/C(=O)OC)c1 (centres unmarked) [NSSK00095]
